Key:
[1] = system: RNase mixture (RNase A, RNase 1, RNase T1); assay: Non-isotopic RNase inactivation assay (mouse total RNA, agarose gel); assay type: biochemical, human, E. coli and a fungus
Text: The inventors routinely perform assays on RNA designed to assess RNase activity in a sample. Two different assays are typically used for the detection of ribonuclease activity, non-isotopic and isotopic. […] In both assays, the inactivation process is typically performed on a mixture of three different ribonucleases: RNase A, RNase 1, and RNase T1. Each ribonuclease is purified from a different species: […], E. coli and a fungus, respectively. The three RNases are very different from each other in their origin, substrate specificity and protein sequence. In this way, the inactivation process can test three completely different but well characterized ribonucleases. The standard stock RNase mixture employed in the following examples is prepared by combining 1 μl RNase 1 (100 U/μl; Ambion), 1 μl RNase cocktail (RNase A, 0.5 U/μl; RNase T1, 20 U/μl, Ambion) and 98 μl water. The non-isotopic assay uses total RNA isolated from mouse as the substrate for the RNase mixture. […] A quantity of 4 μg of total RNA isolated from mouse liver or brain was dissolved in an aqueous solution, usually water or 1 mM sodium citrate (pH 6.6). The treated ribonuclease sample was added to the total RNA and then incubated at 37° C. for 1 or 16 hours, depending on the sensitivity desired for the assay. After incubation, the RNA was fractionated in a formaldehyde 1% agarose gel. The RNA was detected by staining with ethidium bromide and then illuminating the gel with ultraviolet light. The RNA fluoresces in the gel. Untreated total RNA was also fractionated as a control with the test samples for comparative purposes. […] Intact total RNA has two major bands produced by the 28S and 18S ribosomal RNA. […] The RNase cocktail was made to various concentrations in different buffers in different DTT concentrations and incubated at 37° C. or 60° C. for 20 minutes. Total mouse RNA was added to the treated RNase mixture and incubated at 37° C. for one hour, fractionated in a formaldehyde denaturing 1% agarose gel and the RNA visualized by ethidium bromide staining and UV fluorescence.

T3 RNA polymerase = target: T1, T3 RNA polymerase (Enterobacteria phage T3, UniProt P07659); assay: In vitro transcription reaction (MAXIscript kit), UTP[α-32P] incorporation; assay type: biochemical; settings: 20 mM reducing reagent
T1 construct: purchased Ambion, Inc
T1 sequence (P07659 whole entry): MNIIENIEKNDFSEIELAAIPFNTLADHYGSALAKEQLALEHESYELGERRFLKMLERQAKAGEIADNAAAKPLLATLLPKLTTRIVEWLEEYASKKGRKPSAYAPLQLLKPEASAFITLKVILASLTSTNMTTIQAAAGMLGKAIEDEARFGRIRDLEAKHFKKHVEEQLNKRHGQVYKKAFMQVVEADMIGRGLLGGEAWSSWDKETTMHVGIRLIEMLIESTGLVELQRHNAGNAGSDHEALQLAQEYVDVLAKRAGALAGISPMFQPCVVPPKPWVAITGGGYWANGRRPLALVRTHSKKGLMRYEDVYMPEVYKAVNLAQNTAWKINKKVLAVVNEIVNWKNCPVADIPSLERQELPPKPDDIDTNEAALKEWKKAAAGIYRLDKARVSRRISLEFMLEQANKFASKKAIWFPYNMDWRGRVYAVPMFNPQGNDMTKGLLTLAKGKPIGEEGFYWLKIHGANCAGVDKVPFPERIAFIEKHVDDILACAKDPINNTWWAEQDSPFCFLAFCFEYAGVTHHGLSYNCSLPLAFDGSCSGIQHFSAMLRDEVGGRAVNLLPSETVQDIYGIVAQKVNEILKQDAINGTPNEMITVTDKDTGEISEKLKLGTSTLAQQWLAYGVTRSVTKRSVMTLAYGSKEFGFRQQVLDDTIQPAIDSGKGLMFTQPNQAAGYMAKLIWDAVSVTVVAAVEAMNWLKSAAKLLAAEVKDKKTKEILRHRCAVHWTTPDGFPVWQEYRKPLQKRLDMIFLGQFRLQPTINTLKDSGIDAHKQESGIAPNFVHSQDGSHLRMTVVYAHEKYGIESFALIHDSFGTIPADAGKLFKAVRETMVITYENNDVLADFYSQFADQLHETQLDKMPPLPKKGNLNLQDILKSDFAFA
Protocol: (§1) FIG. 3. […] Transcriptions were performed with T7, T3 and SP6 RNA polymerase in the presence and absence of 20 mM DTT. For each RNA polymerase reaction, pTRI-Xef DNA was the template and UTP[α^32P] was included to measure the efficiency of transcription. Duplicates were performed for each reaction. TCA precipitations were performed on each transcription reaction to measure the percent of the UTP[α^32P] incorporated into RNA.
(§2) The transcription reactions were based on the MAXIscript™ transcription kit (Ambion, Inc.). The following were assembled with or without 20 mM reducing reagent in a final volume of 18 μl: NTPs (0.5 mM each), 1 μg linearized DNA template, 2 μl 10 × transcription buffer, and 0.2 μl UTP [α-^32P] (800 Ci/mmol). The reaction mixtures were incubated 60° C. for 10 minutes and then 2 μl of the either SP6, T7 or T3 RNA polymerase (10 units/μl) were added to the reactions, incubated 30° C. for 60 minutes and then TCA precipitated to assess the incorporation of the radioactive label.

T7 RNA polymerase = target: T2, T7 RNA polymerase (Escherichia phage T7, UniProt P00573); assay: as above; assay type: biochemical; settings: 20 mM reducing reagent
T2 construct: purchased Ambion, Inc
T2 sequence (P00573 whole entry): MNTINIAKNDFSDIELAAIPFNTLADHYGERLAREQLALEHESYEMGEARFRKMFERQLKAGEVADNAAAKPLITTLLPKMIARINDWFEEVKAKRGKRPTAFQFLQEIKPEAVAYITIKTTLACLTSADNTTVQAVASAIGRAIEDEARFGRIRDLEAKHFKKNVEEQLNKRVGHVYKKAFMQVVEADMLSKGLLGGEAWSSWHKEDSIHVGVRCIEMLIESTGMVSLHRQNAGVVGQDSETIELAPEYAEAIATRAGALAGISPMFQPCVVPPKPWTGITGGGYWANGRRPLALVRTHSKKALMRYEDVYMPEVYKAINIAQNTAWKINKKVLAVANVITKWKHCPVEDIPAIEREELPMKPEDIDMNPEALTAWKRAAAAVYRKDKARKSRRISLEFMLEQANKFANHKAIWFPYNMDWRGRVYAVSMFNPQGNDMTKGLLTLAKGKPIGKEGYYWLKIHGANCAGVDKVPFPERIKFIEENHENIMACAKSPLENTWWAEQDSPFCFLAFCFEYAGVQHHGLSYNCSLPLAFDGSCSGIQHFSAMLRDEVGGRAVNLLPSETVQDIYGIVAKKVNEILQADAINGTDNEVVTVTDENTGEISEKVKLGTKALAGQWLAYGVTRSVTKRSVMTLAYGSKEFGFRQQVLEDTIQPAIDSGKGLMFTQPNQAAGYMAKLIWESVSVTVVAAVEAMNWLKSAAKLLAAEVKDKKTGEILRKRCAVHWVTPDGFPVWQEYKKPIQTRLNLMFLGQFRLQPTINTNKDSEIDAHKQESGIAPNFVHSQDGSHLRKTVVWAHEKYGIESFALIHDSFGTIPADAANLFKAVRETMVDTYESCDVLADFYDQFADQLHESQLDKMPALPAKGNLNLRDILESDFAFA
Protocol: as §1, §2

SP6 RNA polymerase = target: T3, SP6 RNA polymerase (Enterobacteria phage SP6, UniProt P06221); assay: as above; assay type: biochemical; settings: 20 mM reducing reagent
T3 construct: purchased Ambion, Inc
T3 sequence (P06221 1-874): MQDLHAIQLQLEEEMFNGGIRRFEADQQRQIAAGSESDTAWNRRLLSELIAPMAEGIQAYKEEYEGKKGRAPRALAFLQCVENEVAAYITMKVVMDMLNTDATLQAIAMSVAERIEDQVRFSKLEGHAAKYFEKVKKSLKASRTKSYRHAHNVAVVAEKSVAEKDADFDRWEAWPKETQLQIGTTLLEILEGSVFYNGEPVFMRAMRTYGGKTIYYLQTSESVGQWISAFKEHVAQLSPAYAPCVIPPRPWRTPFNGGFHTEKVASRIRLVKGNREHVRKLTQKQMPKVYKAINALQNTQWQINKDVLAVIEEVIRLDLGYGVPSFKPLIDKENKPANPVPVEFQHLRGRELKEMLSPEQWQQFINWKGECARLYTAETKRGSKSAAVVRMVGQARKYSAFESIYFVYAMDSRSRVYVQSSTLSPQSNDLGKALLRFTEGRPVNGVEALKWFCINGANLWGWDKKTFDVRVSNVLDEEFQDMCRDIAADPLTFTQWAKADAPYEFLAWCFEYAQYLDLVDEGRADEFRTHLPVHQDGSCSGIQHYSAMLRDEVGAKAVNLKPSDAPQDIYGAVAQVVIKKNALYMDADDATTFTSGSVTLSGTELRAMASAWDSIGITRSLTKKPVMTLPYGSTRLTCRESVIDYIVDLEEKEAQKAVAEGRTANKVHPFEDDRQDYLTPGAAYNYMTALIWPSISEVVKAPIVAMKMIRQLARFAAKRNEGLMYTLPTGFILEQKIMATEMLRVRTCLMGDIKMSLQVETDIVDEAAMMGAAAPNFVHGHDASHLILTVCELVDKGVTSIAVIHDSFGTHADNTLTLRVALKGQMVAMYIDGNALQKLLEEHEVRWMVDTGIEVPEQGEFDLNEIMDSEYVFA
Protocol: as §1, §2

DNase I = DNase I (Bos taurus, UniProt P00639); assay: DNase I activity after reducing/heat treatment, plasmid DNA degradation; assay type: biochemical; settings: 20 mM reducing reagent in water; DNase I 0.4 units/μl; 60° C. for 20 minutes
DNase I, sequence (P00639 23-282): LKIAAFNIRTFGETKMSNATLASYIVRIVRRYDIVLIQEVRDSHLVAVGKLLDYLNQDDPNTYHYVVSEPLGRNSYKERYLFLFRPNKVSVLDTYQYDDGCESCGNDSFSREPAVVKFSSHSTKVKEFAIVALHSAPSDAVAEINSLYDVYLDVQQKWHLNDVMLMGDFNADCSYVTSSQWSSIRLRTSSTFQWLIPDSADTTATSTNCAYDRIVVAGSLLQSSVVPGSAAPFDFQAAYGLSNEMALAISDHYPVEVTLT
Protocol: DNase I is commonly used to degrade contaminating DNA in RNA preparations. To test whether the inactivation method affected DNase I activity, DNase I (final concentration of 0.4 units/μl) was added to water containing 20 mM DTT, DTE or β-mercaptoethanol. The mixture was incubated at 60° C. for 20 minutes. After the heat treatment, the DNase I activity was tested by incubating the treated DNase I with plasmid DNA (0.2 μg/μl ) at 37° C. for one hour followed by electrophoresis in a 1% agarose gel.

[2] = system: AMV reverse transcriptase; assay: Reverse transcription reaction (RETROscript kit), dCTP[α-32P] incorporation; assay type: biochemical; settings: 20 mM reducing reagent
Protocol: (§3) FIG. 2. […] Reverse transcriptions were performed using the RETROscript™ kit (Ambion, Inc.). Mouse total RNA in DEPC-treated water was reverse transcribed with either MMLV or AMV reverse transcriptase in the presence or absence of 20 mM DTT. dCTP[α^32P] was included in the reactions to measure the efficiency of reverse transcription. Following incubation at 42° C. for 1 h, 5 μl of each reaction was subjected to TCA precipitation to measure the amount of dCTP[α^32P] incorporated into cDNA by reverse transcription.
(§4) The reverse transcription reactions were performed using the RETROscript™ kit (Ambion, Inc.). The following were assembled with or without 20 mM of the reducing reagents in a final volume of 19 μl: dNTPs (0.5 mM each), oligo dT (5 μM), 0.4 μl dCTP[α-^32p] (3000 Ci/mmol), 10 mM Tris-HCl (pH 8.3): 50 mM KCl: 1.5 mM MgCl2, mouse brain total RNA (4 μg). The reaction mixtures were incubated at 65° C. for 10 minutes. 1 μl (100 units) of AMV or MMLV reverse transcriptase were added and then the reactions were incubated at 42° C. for 1 hour. Reverse transcription by either enzyme was not inhibited by DTT (FIG. 2) or by DTE or β-mercaptoethanol.

[3] = target: T4, MMLV reverse transcriptase (Moloney murine leukemia virus, UniProt P03355); assay: as above; assay type: biochemical; settings: 20 mM reducing reagent
T4 construct: purchased Ambion, Inc
Protocol: as §3, §4

[4] = reducing reagent 20 mM, RNase mixture 200 ng/ml, 60° C. for 20 minutes

Compound | RNase mixture inactivation [1, 4] | inhibition of T3 RNA polymerase transcription (T3 RNA polymerase) | inhibition of T7 RNA polymerase transcription (T7 RNA polymerase) | inhibition of SP6 RNA polymerase transcription (SP6 RNA polymerase) | DNase I activity after reducing/heat treatment (DNase I) | inhibition of reverse transcription by AMV reverse transcriptase [2] | inhibition of reverse transcription by MMLV reverse transcriptase [3] | RNase mixture inactivation ([1]; 10 mM cysteine, RNase mixture 200 ng/ml, 1 mM sodium citrate (pH 6.4), 68° C. for 20 minutes) | RNase mixture inactivation ([1]; 20 mM cysteine, RNase mixture 200 ng/ml, 1 mM sodium citrate (pH 6.4), 68° C. for 20 minutes) | RNase mixture inactivation ([1]; 40 mM cysteine, RNase mixture 200 ng/ml, 1 mM sodium citrate (pH 6.4), 68° C. for 20 minutes) | RNase mixture inactivation ([1]; 60 mM cysteine, RNase mixture 200 ng/ml, 1 mM sodium citrate (pH 6.4), 68° C. for 20 minutes) | RNase mixture inactivation ([1]; heated DTT diluted to 20 mM, RNase mixture 200 ng/ml in water, 60° C. for 20 minutes)
O[C@H](CS)[C@@H](O)CS [DTE, dithioerythritol] | inactivate RNase activity completely | None of the three polymerases were inhibited | None of the three polymerases were inhibited | None of the three polymerases were inhibited | not affected | not inhibited | not inhibited | – | – | – | – | –
N[C@@H](CS)C(=O)O [cysteine] | – | – | – | – | – | – | – | inactivated | inactivated | inactivated | inactivated | –
OC1CSSCC1O (stereo not shown) [oxidized DTT] | – | – | – | – | – | – | – | – | – | – | – | did not inactivate
OCCS [β-mercaptoethanol] | inactivate RNase activity completely | None of the three polymerases were inhibited | None of the three polymerases were inhibited | None of the three polymerases were inhibited | not affected | not inhibited | not inhibited | – | – | – | – | –

From patent US6825340B2, “Methods and reagents for inactivating ribonucleases” (Ambion, Inc., priority 1998, dated 2004)
